In PMC2871279 (Nature, 2009):

Experiments:
dvUT [1] = target: T1, dvUT (Nitratidesulfovibrio vulgaris, UniProt Q72CX3); assay: scintillation proximity saturation binding, Hill fit
T1 sequence (Q72CX3 1-337): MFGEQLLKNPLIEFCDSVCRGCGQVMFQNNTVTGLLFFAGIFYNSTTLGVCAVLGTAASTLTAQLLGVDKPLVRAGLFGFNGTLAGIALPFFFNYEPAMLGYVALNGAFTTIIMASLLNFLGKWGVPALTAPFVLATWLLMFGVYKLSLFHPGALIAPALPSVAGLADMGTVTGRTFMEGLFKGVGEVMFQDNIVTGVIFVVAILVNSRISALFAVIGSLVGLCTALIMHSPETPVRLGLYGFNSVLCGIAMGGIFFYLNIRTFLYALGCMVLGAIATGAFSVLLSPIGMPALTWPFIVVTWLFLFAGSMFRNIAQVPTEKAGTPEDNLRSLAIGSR

dvUT [2] = target: T1, dvUT; assay: SPA isotopic dilution of […]-urea; type: binding
dvUT [3] = target: T1, dvUT; assay: […]-urea uptake in Xenopus oocytes; type: cell-based; conditions: read-out: % inhibition at 1 mM
human UT-B = target: T2, human UT-B (Homo sapiens, UniProt Q13336); assay: […]-urea uptake in Xenopus oocytes; type: cell-based; conditions: read-out: % inhibition at 1 mM
T2 sequence (Q13336 1-389): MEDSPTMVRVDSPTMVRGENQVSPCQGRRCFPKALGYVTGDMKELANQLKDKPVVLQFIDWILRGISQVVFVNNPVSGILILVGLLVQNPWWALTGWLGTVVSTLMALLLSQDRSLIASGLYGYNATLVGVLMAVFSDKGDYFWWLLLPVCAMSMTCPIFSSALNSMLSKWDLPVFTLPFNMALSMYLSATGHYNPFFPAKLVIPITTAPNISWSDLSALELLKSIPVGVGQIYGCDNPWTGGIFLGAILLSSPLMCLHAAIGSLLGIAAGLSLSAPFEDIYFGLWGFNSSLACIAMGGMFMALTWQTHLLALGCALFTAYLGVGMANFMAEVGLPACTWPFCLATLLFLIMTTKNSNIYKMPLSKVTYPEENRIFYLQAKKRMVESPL

Compound	Kd (dvUT [1])	IC50 (dvUT [2])	inhibition at 1000 µM (dvUT [3])	inhibition at 1000 µM (human UT-B)
NC(N)=O [urea]	2.3 ± 0.14 mM	2.3 ± 0.7 mM	–	–
O=C(CCc1ccc(O)cc1)c1c(O)cc(O)cc1O [phloretin]	–	–	87%	86%
